# According to patent US8828988B2 (Tetraphase Pharmaceuticals, Inc., priority 2009, dated 2014):
# Where two headings read alike, the source gives them in different places.
# How the values were obtained:
# [1] = system: E. coli S30 extract system, coupled in vitro transcription/translation, firefly luciferase readout; experiment: In vitro transcription/translation (TnT) assay; format: biochemical; conditions: for IC50, in vitro transcription/translation system: E. coli S30 extract, luciferase readout
# [2] = system: E. coli DH10B(pBAD-tetM), expressing tet(M); experiment: MIC against recombinant E. coli expressing tet(M); format: cell-based; conditions: for MIC: Escherichia coli; for Ratio (TetM induced / Uninduced): ratio of MICs
# Excerpt: (§1) Constructs were transformed into E. coli DH10B for expression. Recombinant strains were pre-induced under optimized conditions with L-arabinose prior to use as inocula in CLSI standardized MIC assays.
# [3] = system: E. faecalis clinical isolates; experiment: MIC50, MIC90 and MIC range, panel of clinical isolates (Example 20); format: cell-based; conditions: 24 isolates, in µg/mL
# Protocol: (§2) The assays were run as follows.
# (§3) Both values, as well as the MIC range (the lowest and highest MIC value observed for a collection of organisms), were determined for the isolates listed in Table 3.
# [4] = system: S. aureus clinical isolates; experiment: as above; format: cell-based; conditions: MRSA, 30 isolates; in µg/mL
# Protocol: as §2, §3
# [5] = system: S. pneumoniae clinical isolates; experiment: as above; format: cell-based; conditions: 19 isolates
# Protocol: as §2, §3
# [6] = system: E. coli DH10B(pBAD-tetK), expressing tet(K); experiment: MIC against recombinant E. coli expressing tet(K); format: cell-based; conditions: for MIC: Escherichia coli
# Excerpt: as §1
# [7] = system: Staphylococcus aureus SA101, ATCC 29213, MSSA; experiment: MIC assay, SA101; format: cell-based
# [8] = system: Enterococcus faecalis EF159, tetracycline-resistant, tet(M); experiment: MIC assay, EF159; format: cell-based
# [9] = system: Escherichia coli EC107, ATCC 25922; experiment: MIC assay, EC107; format: cell-based
# [10] = system: Staphylococcus aureus SA161, HA-MRSA, tetracycline-resistant, tet(M); experiment: MIC assay, SA161; format: cell-based; conditions: Table 8, read-out: MIC S. aureus MRSA, tetM
# [11] = system: Enterococcus faecalis EF103, ATCC 29212; experiment: MIC assay, EF103; format: cell-based; conditions: Enterococcus faecalis, ATCC29212; Table 8; read-out: MIC E. faecalis ATCC 29212
# [12] = system: Escherichia coli EC155, tetracycline-resistant, tet(A); experiment: MIC assay, EC155; format: cell-based
# [13] = system: Staphylococcus aureus SA158, tetracycline-resistant tet(K); experiment: MIC assay, SA158; format: cell-based; conditions: Table 8, read-out: MIC S. aureus tetK
# [14] = system: Streptococcus pneumoniae SP106, ATCC 49619; experiment: MIC assay, SP106; format: cell-based
# [15] = system: Streptococcus pneumoniae SP160, tetracycline-resistant, tet(M); experiment: MIC assay, SP160; format: cell-based; conditions: Table 8, read-out: MIC S. pneumoniae tetM
# [16] = system: Staphylococcus aureus SA100, ATCC 13709, MSSA, Smith strain; experiment: MIC assay, SA100; format: cell-based
# [17] = system: S. aureus strains collected from various geographical sources; experiment: MIC50 and MIC90 analysis (Example 22)
# Protocol: Frozen bacterial strains were thawed and subcultured onto Mueller Hinton Broth (MHB) or other appropriate media (Streptococcus requires blood and Haemophilus requires hemin and NAD). Following incubation overnight, the strains were subcultured onto Mueller Hinton Agar and again incubated overnight. […] Isolated colonies were selected to prepare a starting inoculum equivalent to a 0.5 McFarland standard. […] Antibiotics (stored frozen, thawed and used within 3 hours of thawing) and compounds were further diluted to the desired working concentrations.
# The assays were run as follows. Fifty μL of MHB was added to wells 2-12 of a 96-well plate. One hundred μL of appropriately diluted antibiotic or compound was added to well 1. Fifty μL of antibiotics or compound was removed from well 1 and added to well 2 and the contents of well 2 mixed by pipetting up and down five times. Fifty μL of the mixture in well 2 was removed and added to well 3 and mixed as above. Serial dilutions were continued in the same manner through well 12. Fifty μL was removed from well 12 so that all contained 50 μL. Fifty μL of the working inoculum was then added to all test wells. A growth control well was prepared by adding 50 μL of working inoculum and 50 μL of MHB to an empty well. The plates were then incubated at 37° C. overnight, removed from the incubator and each well was read on a plate reading mirror. The lowest concentration (MIC) of test compound that inhibited the growth of the bacteria was recorded.
# MIC, MIC50 and MIC90 values were determined according to CLSI methodology. S. pneumoniae and H. influenzae isolates were obtained from Eurofins-Medinet and are recent clinical isolates. S. aureus strains were collected from various geographical sources.
# [18] = system: H. influenzae isolates (Eurofins-Medinet, recent clinical isolates); experiment: MIC50 and MIC90 analysis (Example 22)
# [19] = system: S. aureus ATCC 13709 (Smith); experiment: Mouse systemic infection model, S. aureus septicemia; conditions: mouse septicemia, S. aureus ATCC 13709, intravenous treatment one hour post-challenge, survival after 48 hours
# [20] = system: E. coli ATCC 25922; experiment: Mouse systemic infection model, E. coli septicemia; conditions: mouse septicemia, E. coli ATCC 25922, treatment one hour post-challenge, survival after 48 hours
# [21] = Table 8, read-out: MIC S. aureus ATCC 29213
# [22] = Table 8, read-out: MIC E. faecalis tetM
# [23] = ATCC25922, Table 8, read-out: MIC E. coli ATCC 25922
# [24] = Table 8, read-out: MIC E. coli tetA
# [25] = ATCC49619, Table 8, read-out: MIC S. pneumoniae ATCC 49619
structure (smiles),measurement,setting,value
CN(C)[C@@H]1C(O)=C(C(N)=O)C(=O)[C@@]2(O)C(O)=C3C(=O)c4c(O)c(N)nc(F)c4C[C@H]3C[C@@H]12 [Compound 125],TnT IC50,[1],0.93 mg/L
same,"IC50, in vitro transcription/translation system",[1],sub-μg/ml
CN(C)[C@@H]1C(O)=C(C(N)=O)C(=O)[C@@]2(O)C(O)=C3C(=O)c4c(O)c(NC(=O)CNC(C)(C)C)nc(Cl)c4C[C@H]3C[C@@H]12 [Compound 132],TnT IC50,[1],0.78 mg/L
same,"IC50, in vitro transcription/translation system",[1],sub-μg/ml
CCCc1nc(N(C)C)c2c(c1O)C(=O)C1=C(O)[C@]3(O)C(=O)C(C(N)=O)=C(O)[C@@H](N(C)C)[C@@H]3C[C@@H]1C2 [Compound 141],MIC,"[2]; read-out: MIC, TetM induced",32 mg/L
same,MIC,"[2]; read-out: MIC, Uninduced",32 mg/L
same,Ratio (TetM induced / Uninduced),[2],1
same,MIC Range,[3],1-8
same,MIC Range,[4],2-4
same,MIC Range,[5]; in µg/mL,0.25-8
same,MIC,"[6]; read-out: MIC, TetK Induced",32 mg/L
same,MIC,"[6]; read-out: MIC, Uninduced",> 32 mg/L
CN(C)[C@@H]1C(O)=C(C(N)=O)C(=O)[C@@]2(O)C(O)=C3C(=O)c4c(O)cnc(F)c4C[C@H]3C[C@@H]12 [Compound 144],MIC,[7]; [21],0.031 mg/L
same,MIC,[8]; [22],32 mg/L
same,MIC,[9]; [23],0.25 mg/L
same,MIC,[10],8 mg/L
same,MIC,[11],4 mg/L
same,MIC,[12]; [24],> 32 mg/L
same,MIC,[13],8 mg/L
same,MIC,[14]; [25],0.016 mg/L
same,MIC,[15],8 mg/L
CN(C)[C@@H]1C(O)=C(C(N)=O)C(=O)[C@@]2(O)C(O)=C3C(=O)c4c(O)c(N)nc(Cl)c4C[C@H]3C[C@@H]12 [Compound 147],TnT IC50,[1],1.1 mg/L
"C[C@H]1COc2c(N3CCN(C)CC3)c(F)cc3c(=O)c(C(=O)O)cn1c23 [Levofloxacine, levofloxacin, reference compound]",MIC,"[2]; read-out: MIC, TetM induced",0.0156 mg/L
same,MIC,"[2]; read-out: MIC, Uninduced",0.0156 mg/L
same,Ratio (TetM induced / Uninduced),[2],1
same,MIC,"[6]; read-out: MIC, TetK Induced",0.0156 mg/L
same,MIC,"[6]; read-out: MIC, Uninduced",0.0156 mg/L
same,"MIC ratio, TetK induced to uninduced",[6]; ratio of TetK induced to uninduced MIC,1
"CN(C)[C@@H]1C(O)=C(C(N)=O)C(=O)[C@@]2(O)C(O)=C3C(=O)c4c(O)cccc4[C@@](C)(O)[C@H]3C[C@@H]12 [Tetracycline, tetracycline, reference compound]",MIC,"[16]; Table 12, read-out: MIC S. aureus ATCC 13709",0.5 mg/L
same,MIC Range,[17]; S. aureus (n = 20),0.06 to 32 mg/L
same,MIC50,[17]; Staphylococcus aureus,0.13 mg/L
same,MIC90,[17]; Staphylococcus aureus,0.25 mg/L
same,MIC,[7]; [21],0.25 mg/L
same,MIC,"[7]; Table 9, read-out: MIC S. aureus ATCC 29213",0.5 mg/L
same,MIC,"[2]; read-out: MIC, TetM induced",> 32 mg/L
same,MIC,[8]; [22],64 mg/L
same,MIC,"[8]; Table 9, read-out: MIC E. faecalis EF159 (tet)M",> 32 mg/L
same,MIC Range,[18]; H. influenzae (n = 12),0.25 to 16 mg/L
same,MIC50,[18]; Haemophilus influenzae,0.5 mg/L
same,MIC,[10],64 mg/L
same,PD50,[19],0.35 mg/kg
same,MIC,"[6]; read-out: MIC, TetK Induced",> 32 mg/L
same,MIC,[11],8 mg/L
same,MIC,[12]; [24],> 64 mg/L
same,MIC,"[12]; Table 9, read-out: MIC E. coli EC155 (tet)A",> 32 mg/L
same,PD50,[20],17.0 mg/kg
same,MIC,[14]; [25],0.063 mg/L
same,MIC,"[14]; ATCC49619, Table 9, read-out: MIC S. pneum ATCC 49619",0.25 mg/L
"CN(C)c1ccc(O)c2c1C[C@H]1C[C@H]3[C@H](N(C)C)C(O)=C(C(N)=O)C(=O)[C@@]3(O)C(O)=C1C2=O [minocycline, reference compound]",MIC,[7]; [21],0.06 mg/L
same,MIC,[8]; [22],16 mg/L
same,MIC,[9]; [23],0.5 mg/L
same,MIC,[10],8 mg/L
same,MIC,[12]; [24],8 mg/L
same,MIC,[13],0.03 mg/L
same,MIC,[14]; [25],≤ 0.016 mg/L
same,MIC,[15],2 mg/L
"CN(C)c1cc(NC(=O)CNC(C)(C)C)c(O)c2c1C[C@H]1C[C@H]3[C@H](N(C)C)C(O)=C(C(N)=O)C(=O)[C@@]3(O)C(O)=C1C2=O [tigecycline, reference compound]",MIC,[16]; read-out: MIC S. aureus ATCC 13709,0.13 mg/L
same,TnT IC50,[1],0.47 mg/L
same,MIC Range,[3],<=0.016-0.13
same,MIC Range,[4],0.063-0.25
same,MIC Range,[5],≦0.016
same,MIC,"[9]; ATCC25922, read-out: MIC E. coli ATCC 25922",0.13 mg/L
same,PD50,[19],0.35 mg/kg
same,PD50,[20],2.1 mg/kg
